Measurements reported in publication PMC10761119, “Phosphorylation-state dependent intraneuronal sorting of Aβ differentially impairs autophagy and the endo-lysosomal system” (Autophagy, 2023).

Columns and labels:
SH-SY5Y cells [1] = assay: Number and perinuclear/peripheral positioning of LAMP2-positive compartments; format: cell-based, human; settings: Aβ 1 µM, 24 h
Procedure: Cells were cultured on glass coverslips and treated similarly as mentioned above. After treatment, cells were subsequently washed and fixed with 4% paraformaldehyde in PBS for 15 min. Cells were then permeabilized with 0.25% Triton X-100 in PBS for 1 min, followed by blocking with 2.5% BSA, 0.125% Triton X-100 in PBS. Incubation with primary antibodies (respective dilutions in blocking buffer) was performed overnight at 4°C. Next day, coverslips were washed and incubated with respective secondary antibodies (respective dilutions in blocking buffer) for 1 h at RT. Removal of the secondary antibody solution was followed by washes with PBS (thrice) and distilled water (once) and coverslips were mounted on the slides using ImmuMount (ThermoFisher Scientific – Shandon Epredia™, 9990412). For surface staining without permeabilization, Triton X-100 was not used in any solution during the staining procedure.
All images were processed and analyzed using Fiji ImageJ software. Mander’s overlap coefficient (Figure 1B–D; Figure 2B–F; Figure 4B–F; Figure 6E; S2B, D; S4B, D; S6D, F) analysis was done using the colocalization processing module of the Fiji ImageJ plugin. Distance from the plaque core (Figure 1B) was measured using the concentric circles plugin module. Fluorescence intensity of the green channel (Figure S3A-B), and the number of neurons positive for Aβ signals (Figure S3-D) were quantified using the processing module of Keyence software. […] Intensity of green and red channel for a particular ROI was calculated and ratios of the individual values were computed (Figure 6B and S7A). For computing the number of mCherry^+GFP^± vesicles or per cell (Figure 6D and S7B), cell outline was drawn manually and number of vesicles per cell (nucleus count – DAPI) was calculated. […] Due to slight variability in transfection efficiency or the number of cells in different experimental set-ups, the readings from each experiment were averaged and normalized to the control cells from that particular set. […]

SH-SY5Y cells [2] = assay: Immunocytochemistry colocalization of Aβ with LC3 and LAMP2; format: cell-based, human; settings: Aβ 1 µM, 24 h, n = 6, N = 3
Procedure: Cells were cultured on glass coverslips and treated similarly as mentioned above. After treatment, cells were subsequently washed and fixed with 4% paraformaldehyde in PBS for 15 min. […] Incubation with primary antibodies (respective dilutions in blocking buffer) was performed overnight at 4°C. Next day, coverslips were washed and incubated with respective secondary antibodies (respective dilutions in blocking buffer) for 1 h at RT. Removal of the secondary antibody solution was followed by washes with PBS (thrice) and distilled water (once) and coverslips were mounted on the slides using ImmuMount (ThermoFisher Scientific - Shandon EprediaTM, 9990412). […] Quantification of the number of autophagic compartments (Figure S6B) was done manually using a 10 μm^2 ROI grids, placed in the cytosolic region of the individual cells using the “rule of L” counting method. […] All images were processed and analyzed using Fiji ImageJ software. […] Distance from the plaque core (Figure 1B) was measured using the concentric circles plugin module. Fluorescence intensity of the green channel (Figure S3A-B), and the number of neurons positive for Aβ signals (Figure S3-D) were quantified using the processing module of Keyence software. […] Intensity of green and red channel for a particular ROI was calculated and ratios of the individual values were computed (Figure 6B and S7A). […]

Substance | Number of LAMP2-positive vesicles (SH-SY5Y cells [1]) | Ratio of perinuclear to peripheral lysosomes (SH-SY5Y cells [1]; LAMP2-positive compartments, perinuclear <2 µm from nucleus, control 0.61 ± 0.12, n = 12, N = 3) | Colocalization with LAMP2 (SH-SY5Y cells [2]) | Accumulation in LC3-positive autophagosomal structures (SH-SY5Y cells [2])
non-phosphorylated amyloid-β [npAβ, reference compound] | significantly increased | 0.99 ± 0.16 | – | –
amyloid-β phosphorylated at serine residue 26 [p-Ser26Aβ] | significantly increased | – | predominant colocalization | –
amyloid-β phosphorylated at serine residue 8 [p-Ser8Aβ] | – | – | – | preferential accumulation
